Patent US20030129222A1, “Liposomal imexon” (priority 2000, published 2003)

Key:
[1] = system: L1210 leukemia, Mdr; assay: Cytotoxicity in tumor cell culture, MTT assay; format: cell-based, murine; settings: Mus musculus, L1210; MTT assay, multidrug-resistant; read-out: IC50 against human mouse tumors, L1210 leukemia Mdr
Summary of the method: (§1)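 N-substituted 2-cyanoaziridine-1-carboxamides were tested against a panel of human tumor lines and murine leukemia cells. L1210 Mdr is a murine multidrug-resistant, P-glycoprotein-positive leukemia line.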

[2] = system: L1210 leukemia, Sens; assay: Cytotoxicity in tumor cell culture, MTT assay; format: cell-based, murine; settings: Mus musculus, L1210; MTT assay; read-out: IC50 against human mouse tumors, L1210 leukemia Sens
Summary of the method: as §1

[3] = cited from earlier work
[4] = system: 8226 myeloma, Res (imexon-resistant); assay: Cytotoxicity in tumor cell culture, SRB assay; format: cell-based; settings: Homo sapiens; line made resistant to imexon; read-out: IC50 against human mouse tumors, 8226 myeloma Res
Summary of the method: as §1

[5] = system: WiDr colon, res; assay: Cytotoxicity in tumor cell culture, SRB assay; format: cell-based; settings: Homo sapiens, WiDr; multidrug-resistant; read-out: IC50 against human mouse tumors, WiDr colon res
Summary of the method: as §1

[6] = system: WiDr colon, Sens; assay: Cytotoxicity in tumor cell culture, SRB assay; format: cell-based; settings: Homo sapiens, WiDr; read-out: IC50 against human mouse tumors, WiDr colon Sens
Summary of the method: as §1

[7] = system: MCF7 breast, mitox (mitoxantrone-resistant); assay: Cytotoxicity in tumor cell culture, SRB assay; format: cell-based, human; settings: Homo sapiens, MCF7; mitoxantrone-resistant; read-out: IC50 against human mouse tumors, MCF7 breast mitox
Summary of the method: as §1

[8] = system: A-549 lung; assay: Cytotoxicity in tumor cell culture, SRB assay; format: cell-based, human; settings: Homo sapiens, A549; read-out: IC50 against human mouse tumors, A-549 lung
Summary of the method: as §1

[9] = system: MCF7 breast, Dox (doxorubicin-resistant); assay: Cytotoxicity in tumor cell culture, SRB assay; format: cell-based, human; settings: Homo sapiens, MCF7; doxorubicin-resistant; read-out: IC50 against human mouse tumors, MCF7 breast Dox
Summary of the method: as §1

[10] = system: MCF7 breast, Sens; assay: Cytotoxicity in tumor cell culture, SRB assay; format: cell-based, human; settings: Homo sapiens, MCF7; read-out: IC50 against human mouse tumors, MCF7 breast Sens
Summary of the method: as §1

[11] = system: OVCAR3 ovarian; assay: Cytotoxicity in tumor cell culture, SRB assay; format: cell-based, human; settings: Homo sapiens, OVCAR-3; read-out: IC50 against human mouse tumors, OVCAR3 ovarian
Summary of the method: as §1

[12] = system: A375 melan; assay: Cytotoxicity in tumor cell culture, SRB assay; format: cell-based, human; settings: Homo sapiens, A-375; read-out: IC50 against human mouse tumors, A375 melan
Summary of the method: as §1

[13] = system: 8226 myeloma, Sens (drug-sensitive); assay: Cytotoxicity in tumor cell culture, SRB assay; format: cell-based, human; settings: Homo sapiens; drug-sensitive line; read-out: IC50 against human mouse tumors, 8226 myeloma Sens
Summary of the method: as §1

[14] = system: fresh human tumor cells; settings: cited from earlier work
[15] = system: human lymphoma, melanoma, and prostate cancer cell lines; settings: cited from earlier work
[16] = system: panel of tumor cells in culture; assay: Panel of tumor cell cultures (all lines of Table 3); format: cell-based, human, murine
Excerpt: A set of twenty 2-cyanoaziridine-1-carboxamides was synthesized from 2-cyanoaziridine and appropriate isocyanates. […] It is contemplated that one or more of these 2-cyanoaziridine-1-carboxamides derivatives may be used in combination with a lipid and/or another agent.

[17] = system: transplanted syngeneic tumors; settings: rodents; cited from earlier work
[18] = system: Ovary (cloned fresh human tumors); assay: Human tumor cloning assay, [3H]thymine uptake by tumor-colony-forming cells; format: cell-based; settings: No. tested 12
Method: (§2) Assays of antitumor agents against fresh human tumor-colony-forming cells provide results that predict better the responses obtained in treating cancer patients than those obtained with long established human cell lines (Salmon et al., 1981). For this reason, the N-phenyl derivative 13 was tested against a variety of fresh human tumors obtained at the Arizona Cancer Center using established methodology (Salmon and Hersh, 1994).

[19] = system: Lung (cloned fresh human tumors); assay: as above; format: cell-based; settings: No. tested 2
Method: as §2

[20] = system: Other Gynecologic (cloned fresh human tumors); assay: as above; format: cell-based; settings: No. tested 4
Method: as §2

[21] = system: Melanoma (cloned fresh human tumors); assay: as above; format: cell-based; settings: No. tested 10
Method: as §2

[22] = system: Stomach (cloned fresh human tumors); assay: as above; format: cell-based; settings: No. tested 1
Method: as §2

[23] = system: Myeloma (cloned fresh human tumors); assay: as above; format: cell-based; settings: No. tested 3
Method: as §2

[24] = system: Breast (cloned fresh human tumors); assay: as above; format: cell-based; settings: No. tested 4
Method: as §2

[25] = system: Sarcoma (cloned fresh human tumors); assay: as above; format: cell-based; settings: Sarcoma, No. tested 8
Method: as §2

For `N=C1NC(=O)N2CC12` (stereo not drawn) [Imexon, 4-imino-1,3-diazabicyclo[3.1.0]hexan-2-one], the IC50 [1] is listed as 477 µM, the IC50 [2] is listed as 612 µM and the tolerability ([3]; Phase I) is listed as “well-tolerated”. For the same compound, the clinical response ([3]; patients with lung cancer, breast cancer, or liver cancer) was “objective responses or stabilization of the disease”, the IC50 [4] was 115 µM and the IC50 [5] was greater than 72 µM. For the same compound, the IC50 [6] was greater than 72 µM, the IC50 [7] was greater than 18 µM and the IC50 [8] was greater than 72 µM. For the same compound, the IC50 [9] was greater than 18 µM, the IC50 [10] was greater than 18 µM and the IC50 [11] was 640 µM. For the same compound, the IC50 [12] was 324 µM, the IC50 [13] was 17 µM and the “cytotoxicity in clonogenic assay” value [14] was “selectively cytotoxic to multiple myeloma”. The “activity against human tumor cell lines in SCID mice” value [15] was “active”, the “selectivity among tumor cell types” value [16] was “selective for multiple myeloma” and the “activity against transplanted syngeneic tumors” value [17] was “active”. For the same compound, the no. sensitive ([18]; Imexon 0.1 μM) was 4, the no. sensitive ([18]; Imexon 1.0 μM) was 3/11 and the no. sensitive ([18]; Imexon 10 μM) was 8. It also gave a no. sensitive ([19]; Imexon 0.1 μM) of 0, a no. sensitive ([19]; Imexon 1.0 μM) of 0 and a no. sensitive ([19]; Imexon 10 μM) of 2. It also gave a no. sensitive ([20]; Imexon 0.1 μM) of 0, a no. sensitive ([20]; Imexon 1.0 μM) of 0 and a no. sensitive ([20]; Imexon 10 μM) of 1. The no. sensitive ([21]; Imexon 0.1 μM) was 3/5, the no. sensitive ([21]; Imexon 1.0 μM) was 4 and the no. sensitive ([21]; Imexon 10 μM) was 8. The no. sensitive ([22]; Imexon 0.1 μM) was 0, the no. sensitive ([22]; Imexon 1.0 μM) was 0 and the no. sensitive ([22]; Imexon 10 μM) was 1. For the same compound, the no. sensitive ([23]; Imexon 0.1 μM) was 3, the no. sensitive ([23]; Imexon 1.0 μM) was 3 and the no. sensitive ([23]; Imexon 10 μM) was 3. It also gave a no. sensitive ([24]; Imexon 0.1 μM) of 0, a no. sensitive ([24]; Imexon 1.0 μM) of 2 and a no. sensitive ([24]; Imexon 10 μM) of 3. For the same compound, the no. sensitive ([25]; Imexon 0.1 μM) was 0/2, the no. sensitive ([25]; Imexon 1.0 μM) was 2 and the no. sensitive ([25]; Imexon 10 μM) was 5.
